From ChEMBL document CHEMBL3885881, “DrugMatrix”

Organism: Rattus norvegicus
Experiment: DrugMatrix - Regimen: Daily Repeat
Format: toxicity, organism-based, Sprague-Dawley
Design: regimen Daily Repeat, gender Male, age 6-8 weeks
Settings: in vivo, po, route oral GAVAGE, vehicle 100 % WATER; for BASOPHIL / EOSINOPHIL / ERYTHROCYTE COUNT / HEMATOCRIT / HEMOGLOBIN / LEUKOCYTE COUNT / LYMPHOCYTE / MEAN CORPUSCULAR HEMOGLOBIN / MEAN CORPUSCULAR HEMOGLOBIN CONCENTRATION / MEAN CORPUSCULAR VOLUME / MONOCYTE / NEUTROPHIL / PLATELET COUNT: tissue Blood; for ALANINE AMINOTRANSFERASE / ALBUMIN / ALKALINE PHOSPHATASE / ASPARTATE AMINOTRANSFERASE / BLOOD UREA NITROGEN / CHLORIDE / CHOLESTEROL / CREATINE PHOSPHOKINASE / CREATININE / GLUCOSE / PHOSPHORUS / POTASSIUM / SODIUM / TOTAL BILIRUBIN / TOTAL PROTEIN: tissue Plasma
[1] = 0 mg/kg, 72 h, dose level Control, time 3 day
[2] = 0 mg/kg, 120 h, dose level Control, time 5 day
[3] = 4 mg/kg, 72 h, dose level Low, time 3 day
[4] = 4 mg/kg, 120 h, dose level Low, time 5 day

Compound: CCN(CC)CCOC(=O)C1(C2CCCCC2)CCCCC1 [DICYCLOMINE]
- BASOPHIL [1]: 0%
- EOSINOPHIL [1]: 0.5%
- ERYTHROCYTE COUNT [1]: 5.8 x10E6/uL
- HEMATOCRIT [1]: 35.07%
- HEMOGLOBIN [1]: 14.12 G/DL
- LEUKOCYTE COUNT [1]: 13.7 x10E3/uL
- LYMPHOCYTE [1]: 82.33%
- MEAN CORPUSCULAR HEMOGLOBIN [1]: 24.38 pg
- MEAN CORPUSCULAR HEMOGLOBIN CONCENTRATION [1]: 40.28 G/DL
- MEAN CORPUSCULAR VOLUME [1]: 60.52 fL
- MONOCYTE [1]: 2.67%
- NEUTROPHIL [1]: 14.5%
- PLATELET COUNT [1]: 911.5 x10E3/uL
- ALANINE AMINOTRANSFERASE [1]: 36.83 u/L
- ALBUMIN [1]: 3.75 G/DL
- ALKALINE PHOSPHATASE [1]: 399.83 u/L
- ASPARTATE AMINOTRANSFERASE [1]: 66 u/L
- BLOOD UREA NITROGEN [1]: 14.67 mg/dL
- CHLORIDE [1]: 101.67 MEQ/L
- CHOLESTEROL [1]: 66.33 mg/dL
- CREATINE PHOSPHOKINASE [1]: 139.5 u/L
- CREATININE [1]: 0.92 mg/dL
- GLUCOSE [1]: 175 mg/dL
- PHOSPHORUS [1]: 11.42 mg/dL
- POTASSIUM [1]: 7.03 MEQ/L
- SODIUM [1]: 148.5 MEQ/L
- TOTAL BILIRUBIN [1]: 1.13 mg/dL
- TOTAL PROTEIN [1]: 6.87 G/DL
- BASOPHIL [2]: 0%
- EOSINOPHIL [2]: 0.2%
- ERYTHROCYTE COUNT [2]: 6.02 x10E6/uL
- HEMATOCRIT [2]: 36.48%
- HEMOGLOBIN [2]: 14.38 G/DL
- LEUKOCYTE COUNT [2]: 12.34 x10E3/uL
- LYMPHOCYTE [2]: 83%
- MEAN CORPUSCULAR HEMOGLOBIN [2]: 23.92 pg
- MEAN CORPUSCULAR HEMOGLOBIN CONCENTRATION [2]: 39.44 G/DL
- MEAN CORPUSCULAR VOLUME [2]: 60.66 fL
- MONOCYTE [2]: 3%
- NEUTROPHIL [2]: 13.8%
- PLATELET COUNT [2]: 1190.6 x10E3/uL
- ALANINE AMINOTRANSFERASE [2]: 43 u/L
- ALBUMIN [2]: 3.73 G/DL
- ALKALINE PHOSPHATASE [2]: 393 u/L
- ASPARTATE AMINOTRANSFERASE [2]: 62.33 u/L
- BLOOD UREA NITROGEN [2]: 16.33 mg/dL
- CHLORIDE [2]: 101.67 MEQ/L
- CHOLESTEROL [2]: 65.5 mg/dL
- CREATINE PHOSPHOKINASE [2]: 130.67 u/L
- CREATININE [2]: 0.58 mg/dL
- GLUCOSE [2]: 180.67 mg/dL
- PHOSPHORUS [2]: 11.28 mg/dL
- POTASSIUM [2]: 7.05 MEQ/L
- SODIUM [2]: 148.17 MEQ/L
- TOTAL BILIRUBIN [2]: 0.72 mg/dL
- TOTAL PROTEIN [2]: 6.83 G/DL
- BASOPHIL [3]: 0%
- EOSINOPHIL [3]: 0.33%
- ERYTHROCYTE COUNT [3]: 6.01 x10E6/uL
- HEMATOCRIT [3]: 36.27%
- HEMOGLOBIN [3]: 14.33 G/DL
- LEUKOCYTE COUNT [3]: 12.73 x10E3/uL
- LYMPHOCYTE [3]: 85.67%
- MEAN CORPUSCULAR HEMOGLOBIN [3]: 23.9 pg
- MEAN CORPUSCULAR HEMOGLOBIN CONCENTRATION [3]: 39.57 G/DL
- MEAN CORPUSCULAR VOLUME [3]: 60.4 fL
- MONOCYTE [3]: 2%
- NEUTROPHIL [3]: 12%
- PLATELET COUNT [3]: 1302.67 x10E3/uL
- ALANINE AMINOTRANSFERASE [3]: 37.67 u/L
- ALBUMIN [3]: 3.63 G/DL
- ALKALINE PHOSPHATASE [3]: 354.67 u/L
- ASPARTATE AMINOTRANSFERASE [3]: 62.33 u/L
- BLOOD UREA NITROGEN [3]: 14 mg/dL
- CHLORIDE [3]: 102.67 MEQ/L
- CHOLESTEROL [3]: 65.33 mg/dL
- CREATINE PHOSPHOKINASE [3]: 133.33 u/L
- CREATININE [3]: 0.63 mg/dL
- GLUCOSE [3]: 179.67 mg/dL
- PHOSPHORUS [3]: 11.7 mg/dL
- POTASSIUM [3]: 6.7 MEQ/L
- SODIUM [3]: 150.67 MEQ/L
- TOTAL BILIRUBIN [3]: 0.53 mg/dL
- TOTAL PROTEIN [3]: 6.6 G/DL
- BASOPHIL [4]: 0%
- EOSINOPHIL [4]: 0.33%
- ERYTHROCYTE COUNT [4]: 6.36 x10E6/uL
- HEMATOCRIT [4]: 39.27%
- HEMOGLOBIN [4]: 15.3 G/DL
- LEUKOCYTE COUNT [4]: 12.77 x10E3/uL
- LYMPHOCYTE [4]: 87.33%
- MEAN CORPUSCULAR HEMOGLOBIN [4]: 24.03 pg
- MEAN CORPUSCULAR HEMOGLOBIN CONCENTRATION [4]: 38.97 G/DL
- MEAN CORPUSCULAR VOLUME [4]: 61.73 fL
- MONOCYTE [4]: 2.67%
- NEUTROPHIL [4]: 9.67%
- PLATELET COUNT [4]: 1082 x10E3/uL
- ALANINE AMINOTRANSFERASE [4]: 45 u/L
- ALBUMIN [4]: 3.6 G/DL
- ALKALINE PHOSPHATASE [4]: 424.67 u/L
- ASPARTATE AMINOTRANSFERASE [4]: 67.67 u/L
- BLOOD UREA NITROGEN [4]: 15.67 mg/dL
- CHLORIDE [4]: 104.33 MEQ/L
- CHOLESTEROL [4]: 65 mg/dL
- CREATINE PHOSPHOKINASE [4]: 107.33 u/L
- CREATININE [4]: 0.6 mg/dL
- GLUCOSE [4]: 195 mg/dL
- PHOSPHORUS [4]: 12.53 mg/dL
- POTASSIUM [4]: 6.67 MEQ/L
- SODIUM [4]: 151 MEQ/L
- TOTAL BILIRUBIN [4]: 0.63 mg/dL
- TOTAL PROTEIN [4]: 6.53 G/DL
